Experimental data reported in ChEMBL document CHEMBL3885881, “DrugMatrix”.

Species on record: Rattus norvegicus
Assay: DrugMatrix - Regimen: Daily Repeat
Type: toxicity, organism-based, Sprague-Dawley
Parameters: regimen Daily Repeat, gender Male, age 6-8 weeks
Settings: in vivo, ip, route intraperitoneal, vehicle 100 % SALINE; for ABSOLUTE BASOPHIL / ABSOLUTE EOSINOPHIL / ABSOLUTE LYMPHOCYTE / ABSOLUTE MONOCYTE / ABSOLUTE SEGMENTED NEUTROPHIL / BASOPHIL / EOSINOPHIL / ERYTHROCYTE COUNT / HEMATOCRIT / HEMOGLOBIN / LEUKOCYTE COUNT / LYMPHOCYTE / MEAN CORPUSCULAR HEMOGLOBIN / MEAN CORPUSCULAR HEMOGLOBIN CONCENTRATION / MEAN CORPUSCULAR VOLUME / MONOCYTE / NEUTROPHIL / PLATELET COUNT: tissue Blood; for ALANINE AMINOTRANSFERASE / ALBUMIN / ALKALINE PHOSPHATASE / ASPARTATE AMINOTRANSFERASE / BLOOD UREA NITROGEN / CHLORIDE / CHOLESTEROL / CREATININE / GLUCOSE / LACTATE DEHYDROGENASE / LIPASE / PHOSPHORUS / POTASSIUM / SODIUM / TOTAL BILIRUBIN / TOTAL PROTEIN / URIC ACID / CREATINE PHOSPHOKINASE: tissue Plasma
[1] = 0 mg/kg, 120 h, dose level Control, time 5 day
[2] = 0 mg/kg, […], dose level Control, time 14 day
[3] = 0 mg/kg, […], dose level Control, time 28 day
[4] = 160 mg/kg, 120 h, dose level High, time 5 day

`NCC[C@H](O)C(=O)N[C@@H]1C[C@H](N)[C@@H](O[C@H]2O[C@H](CN)[C@@H](O)[C@H](O)[C@H]2O)[C@H](O)[C@H]1O[C@H]1O[C@H](CO)[C@@H](O)[C@H](N)[C@H]1O` [AMIKACIN] showed an ABSOLUTE BASOPHIL [1] of 32 cells/µL, an ABSOLUTE EOSINOPHIL [1] of 110 cells/µL and an ABSOLUTE LYMPHOCYTE [1] of 6630 cells/µL. It also gave an ABSOLUTE MONOCYTE [1] of 140 cells/µL, an ABSOLUTE SEGMENTED NEUTROPHIL [1] of 1170 cells/µL and a BASOPHIL [1] of 0.38%. For the same molecule, the EOSINOPHIL [1] was 1.28%, the “ERYTHROCYTE COUNT” value [1] was 7.45 x10E6/uL and the HEMATOCRIT [1] was 45.74%. For the same molecule, the HEMOGLOBIN [1] was 14.72 G/DL, the “LEUKOCYTE COUNT” value [1] was 8.11 x10E3/uL and the LYMPHOCYTE [1] was 81.3%. The “MEAN CORPUSCULAR HEMOGLOBIN” value [1] was 19.76 pg, the “MEAN CORPUSCULAR HEMOGLOBIN CONCENTRATION” value [1] was 32.16 G/DL and the “MEAN CORPUSCULAR VOLUME” value [1] was 61.38 fL. The MONOCYTE [1] was 1.76%, the NEUTROPHIL [1] was 14.9% and the “PLATELET COUNT” value [1] was 1322.4 x10E3/uL. The “ALANINE AMINOTRANSFERASE” value [1] was 25.8 u/L, the ALBUMIN [1] was 3.64 G/DL and the “ALKALINE PHOSPHATASE” value [1] was 233.6 u/L. The “ASPARTATE AMINOTRANSFERASE” value [1] was 81.4 u/L, the “BLOOD UREA NITROGEN” value [1] was 14.4 mg/dL and the CHLORIDE [1] was 105.6 MEQ/L. The CHOLESTEROL [1] was 69.2 mg/dL, the CREATININE [1] was 0.56 mg/dL and the GLUCOSE [1] was 125.4 mg/dL. The “LACTATE DEHYDROGENASE” value [1] was 105.4 u/L, the LIPASE [1] was 22.4 u/L and the PHOSPHORUS [1] was 11.48 mg/dL. The POTASSIUM [1] was 5.52 MEQ/L, the SODIUM [1] was 147 MEQ/L and the “TOTAL BILIRUBIN” value [1] was 0.2 mg/dL. The “TOTAL PROTEIN” value [1] was 6.1 G/DL, the “URIC ACID” value [1] was 1.06 mg/dL and the ABSOLUTE BASOPHIL [2] was 130 cells/µL. It also gave an ABSOLUTE EOSINOPHIL [2] of 140 cells/µL, an ABSOLUTE LYMPHOCYTE [2] of 13500 cells/µL and an ABSOLUTE MONOCYTE [2] of 400 cells/µL. It also gave an ABSOLUTE SEGMENTED NEUTROPHIL [2] of 2330 cells/µL, a BASOPHIL [2] of 0.72% and an EOSINOPHIL [2] of 0.86%. For the same molecule, the “ERYTHROCYTE COUNT” value [2] was 7.74 x10E6/uL, the HEMATOCRIT [2] was 45.98% and the HEMOGLOBIN [2] was 13.86 G/DL. The “LEUKOCYTE COUNT” value [2] was 16.61 x10E3/uL, the LYMPHOCYTE [2] was 81.34% and the “MEAN CORPUSCULAR HEMOGLOBIN” value [2] was 18 pg. The “MEAN CORPUSCULAR HEMOGLOBIN CONCENTRATION” value [2] was 30.22 G/DL, the “MEAN CORPUSCULAR VOLUME” value [2] was 59.4 fL and the MONOCYTE [2] was 2.46%. For the same molecule, the NEUTROPHIL [2] was 14.14%, the “PLATELET COUNT” value [2] was 1445.5 x10E3/uL and the ABSOLUTE BASOPHIL [3] was 91 cells/µL. For the same molecule, the ABSOLUTE EOSINOPHIL [3] was 110 cells/µL, the ABSOLUTE LYMPHOCYTE [3] was 9910 cells/µL and the ABSOLUTE MONOCYTE [3] was 210 cells/µL. For the same molecule, the ABSOLUTE SEGMENTED NEUTROPHIL [3] was 1560 cells/µL, the BASOPHIL [3] was 0.77% and the EOSINOPHIL [3] was 0.92%. For the same molecule, the “ERYTHROCYTE COUNT” value [3] was 8.21 x10E6/uL, the HEMATOCRIT [3] was 47.53% and the HEMOGLOBIN [3] was 15.65 G/DL. The “LEUKOCYTE COUNT” value [3] was 11.91 x10E3/uL, the LYMPHOCYTE [3] was 83.34% and the “MEAN CORPUSCULAR HEMOGLOBIN” value [3] was 19.07 pg. The “MEAN CORPUSCULAR HEMOGLOBIN CONCENTRATION” value [3] was 32.93 G/DL, the “MEAN CORPUSCULAR VOLUME” value [3] was 57.9 fL and the MONOCYTE [3] was 1.68%. The NEUTROPHIL [3] was 12.97%, the “PLATELET COUNT” value [3] was 1323.8 x10E3/uL and the “ALANINE AMINOTRANSFERASE” value [2] was 31.6 u/L. For the same molecule, the ALBUMIN [2] was 3.66 G/DL, the “ALKALINE PHOSPHATASE” value [2] was 228.6 u/L and the “ASPARTATE AMINOTRANSFERASE” value [2] was 79.6 u/L. For the same molecule, the “BLOOD UREA NITROGEN” value [2] was 11.2 mg/dL, the CHLORIDE [2] was 107 MEQ/L and the CHOLESTEROL [2] was 57 mg/dL. For the same molecule, the “CREATINE PHOSPHOKINASE” value [2] was 233.6 u/L, the CREATININE [2] was 0.5 mg/dL and the GLUCOSE [2] was 124.4 mg/dL. The “LACTATE DEHYDROGENASE” value [2] was 106.4 u/L, the LIPASE [2] was 24.4 u/L and the PHOSPHORUS [2] was 10.52 mg/dL. The POTASSIUM [2] was 6.34 MEQ/L, the SODIUM [2] was 149.2 MEQ/L and the “TOTAL BILIRUBIN” value [2] was 0.2 mg/dL. For the same molecule, the “TOTAL PROTEIN” value [2] was 6.48 G/DL, the “URIC ACID” value [2] was 0.94 mg/dL and the “ALANINE AMINOTRANSFERASE” value [3] was 30 u/L. For the same molecule, the ALBUMIN [3] was 3.71 G/DL, the “ALKALINE PHOSPHATASE” value [3] was 186.8 u/L and the “ASPARTATE AMINOTRANSFERASE” value [3] was 78.2 u/L. For the same molecule, the “BLOOD UREA NITROGEN” value [3] was 14.2 mg/dL, the CHLORIDE [3] was 105.4 MEQ/L and the CHOLESTEROL [3] was 44.9 mg/dL. For the same molecule, the “CREATINE PHOSPHOKINASE” value [3] was 334.3 u/L, the CREATININE [3] was 0.6 mg/dL and the GLUCOSE [3] was 147.2 mg/dL. For the same molecule, the “LACTATE DEHYDROGENASE” value [3] was 123.1 u/L, the LIPASE [3] was 9.6 u/L and the PHOSPHORUS [3] was 10.01 mg/dL. For the same molecule, the POTASSIUM [3] was 6.57 MEQ/L, the SODIUM [3] was 149.5 MEQ/L and the “TOTAL BILIRUBIN” value [3] was 0.21 mg/dL. For the same molecule, the “TOTAL PROTEIN” value [3] was 6.66 G/DL, the “URIC ACID” value [3] was 1.26 mg/dL and the ABSOLUTE BASOPHIL [4] was 42 cells/µL. It also gave an ABSOLUTE EOSINOPHIL [4] of 76 cells/µL and an ABSOLUTE LYMPHOCYTE [4] of 7260 cells/µL.
